Laboratory results published in article PMC10377513, “Goldilocks Dilemma: LPS Works Both as the Initial Target and a Barrier for the Antimicrobial Action of Cationic AMPs on E. coli” (Biomolecules, 2023).
Converted amounts (≈) assume the structure as drawn. Residues, ends and D or L forms follow the SMILES beside them.

Tests used:
[1] = test system: E. coli CCUG 70662
Description: (§1) The bacterial strains tested were E. coli ATCC 25922, E. coli […], and E. coli NR-698. The MIC assays followed the CLSI guidelines. Overnight cultures and MIC assays were performed in MHBII (212322, Becton, Dickson and Company, Sparks, MD, USA). In addition, E. coli […] was tested after cultivation with 4 µg/mL of colistin to induce alternation in surface charge.
(§2) The antimicrobial activity of the five cyclic cationic AMPs was determined against S. aureus, P. aeruginosa, and three strains of E. coli: ATCC 25922, LPS colistin-resistant strain CCUG 70662, and LPS deficient strain NR 698 (Table 1). CCUG 70662 was cultivated in two conditions, both in the absence (−) and in the presence (+) of colistin (4 µg/mL). Resistance development can be monitored by measuring changes in the ζ-potential, reflecting the overall charge of the bacteria. […] In the NR 698 strain, translocation of LPS from the periplasmic space to the outer leaflet is hindered.

[2] = test system: E. coli NR 698; conditions: LPS deficient strain; CLSI guidelines, MHBII
Description: as §1, §2

[3] = SPR partitioning into immobilized liposomes; format: binding, E. coli; conditions: DMPC liposomes with 10% LPS versus DMPC and DMPC:PG
Description: The large unilamellar liposomes of DMPC and DMPC:PG (95:5) were prepared for the SPR experiment using standard methods. In brief, lipid mixtures were weighted from dry powder (Avanti, USA) and dissolved in 3:1 dichloromethane:methanol mixtures. The organic mixture was dried in a vacuum rotavapor to form a lipid film which was hydrated to 20 mM total concentration of lipids (for DMPC and DMPC:PG mixture) by adding 10 mM HEPES buffer pH 7.4 with 150 mM NaCl. For DMPC:LPS mixtures, dried LPS was dissolved in water and mixed with DMPC dissolved in dichloromethane. Isopropanol was added to the mixture until only one phase—dichloromethane:isopropanol:water was formed. Dry film was prepared and then hydrated using the same method as above to a concentration of 18 mM of DMPC and 10% (w/w) LPS in HEPES buffer. […]
The SPR experiments were performed at room temperature using the L1 chip and T200 Biacore instrument (GE Healthcare, Chicago, IL, USA). […] KD was obtained Using Equation (1) from a standard steady-state fit:(1) RU=RUMAX/1+KD/[P]+off, where RU is measured SPR response; RUMAX is RU response during saturation; [P] is peptide concentration; and off is offset of response. […]
SPR is emerging as the method of choice for measuring the partitioning of small compounds into lipid bilayers. […] From the estimated KD and the measured koff values, the association rate kon can be calculated (Equation (5)). […]

[4] = test system: P. aeruginosa ATCC 27853; conditions: CLSI guidelines, MHBII; cited from earlier work
Description: (§3) Table 1 MIC and ζ potentials for the tested peptides against P. aeruginosa, S. aureus, and the three E. coli strains: ATCC 25922, LPS deficient—NR 698, and colistin-resistant CCUG 70662, which was tested after cultivation with (+) and without (−) 4 µg/mL of colistin, which caused a decrease of negative charge of the cell wall. MIC values for P. aeruginosa, S. aureus, and E. coli ATCC 25922 are rep | column: MIC (µg/mL) / P. aeruginosa ATCC 27853

[5] = test system: S. aureus ATCC 9144; conditions: CLSI guidelines, MHBII; cited from earlier work
Description: as §3, with “/ S. aureus” for “/ P. aeruginosa”, “ATCC 9144” for “ATCC 27853”

[6] = test system: E. coli ATCC 25922; conditions: CLSI guidelines, MHBII; cited from earlier work
Description: as §3, with “/ E. coli” for “/ P. aeruginosa”, “ATCC 25922” for “ATCC 27853”

[7] = SPR, L1 chip, Biacore T200, room temperature, DMPC liposomes, 10 mM HEPES pH 7.4, 150 mM NaCl, steady-state fit; cited from earlier work
From the text: Introducing 5% of a negatively charged component (DMPG) to the liposomes doubled the KP of all peptides except c(WKWKWK), where the increase was less substantial.

[8] = test system: E. coli ATCC 25922 live cells; assay: Live cell NMR (1H signal attenuation on cell titration); format: binding; conditions: E. coli ATCC 25922 cells titrated into 1 mg/mL peptide, Tris buffer pH 7.4, 298 K; KD in estimated lipid concentration, Shortridge fit; read-out: KD from live cell NMR
Description: (§4) NMR spectra were acquired on a Bruker Avance III HD spectrometer operating at 600 MHz for ^1H, equipped with an inverse TCl cryo probe. All NMR spectra were acquired at 298 K using 5 mm tubes using standard pulse programs.
(§5) E. coli strains ATCC 25922, CCUG 70662, and NR 698 were grown until OD600 ≈ 0.6–0.8 in standard Lysogeny Broth at 37 °C from overnight colonies on agar plates. This allowed bacterial cultures to reach an exponential state of growth. CCUG 70662 was cultivated with and without 4 µg/mL of colistin in both agar and broth to allow for modification of the lipid A part of LPS [33]. After that, cells were carefully centrifuged by 6000× g for 10 min, the supernatant was discarded, and the cell pellet was resuspended in 10 mM Tris buffer with 100 mM NaCl and pH 7.4. The process was repeated two more times to wash out broth components and leftover colistin. […] The part of samples was diluted to OD = 1 in Tris buffer, and zeta potential was measured on Malvern Zetasizer Nano (Malvern Ins., Malvern, UK). […]
(§6) For the live cell NMR, the same E. coli strains as for the MIC testing (see above) were used. […] To measure the initial AMP:bacterial cell binding, we titrated an increasing number of cells into a known and fixed concentration of AMP and monitored the signal attenuation of the peptide (Figure 4A,B). […]

[9] = test system: E. coli NR 698 live cells; assay: as above; format: binding; conditions: E. coli NR 698 cells titrated into 1 mg/mL peptide, Tris buffer pH 7.4, 298 K; KD in estimated lipid concentration, Shortridge fit; read-out: KD from live cell NMR
Description: as §4, §5, §6

[10] = test system: E. coli ATCC 25922 lysate; assay: NMR line shape analysis with sonicated cell lysate; format: binding; conditions: ATCC 25922 lysate versus live cells
Description: as §4, §5, §6

| Compound | MIC E. coli CCUG 70662+ [1] [µg/mL] | MIC E. coli CCUG 70662− [1] [µg/mL] | MIC E. coli NR 698 [2] [µg/mL] | Increase in KP with DMPC:LPS compared to the DMPC and DMPC:PG constructs [3] | MIC P. aeruginosa ATCC 27853 [4] [µg/mL] | MIC S. aureus ATCC 9144 [5] [µg/mL] | MIC E. coli ATCC 25922 [6] [µg/mL] | Partitioning constant KP [7] | Kd [8] [µM] | Kd [9] [µM] | Increase in KD after sonication (lysate versus live cell ATCC 25922) [10] |
| --- | --- | --- | --- | --- | --- | --- | --- | --- | --- | --- | --- |
| CC(C)C[C@@H]1NC(=O)[C@@H](CCCNC(=N)N)NC(=O)[C@H](CCCCN)NC(=O)[C@H](CC(N)=O)NC(=O)[C@@H](Cc2c[nH]c3ccccc23)NC(=O)[C@H](Cc2c[nH]c3ccccc23)NC1=O [c(LWwNKr)] (HELM PEPTIDE1{L.W.[dW].N.K.[dR]}$PEPTIDE1,PEPTIDE1,1:R1-6:R2$$$V2.0) | >250 | >250 | 32 (≈ 36.2 µM) | four-fold | >250 | >250 | >250 | 278 |  |  |  |
| NCCCC[C@@H]1NC(=O)[C@H](Cc2c[nH]c3ccccc23)NC(=O)[C@H](CCCCN)NC(=O)[C@H](Cc2c[nH]c3ccccc23)NC(=O)[C@H](CCCCN)NC(=O)[C@H](Cc2c[nH]c3ccccc23)NC1=O [c(WKWKWK)] (HELM PEPTIDE1{W.K.W.K.W.K}$PEPTIDE1,PEPTIDE1,1:R1-6:R2$$$V2.0) | 64 (≈ 67.9 µM) | 64 (≈ 67.9 µM) | 4 (≈ 4.24 µM) |  | >250 | 128 (≈ 136 µM) | 64 (≈ 67.9 µM) |  |  |  |  |
| N=C(N)NCCC[C@@H]1NC(=O)[C@H](Cc2c[nH]c3ccccc23)NC(=O)[C@H](CCCNC(=N)N)NC(=O)[C@H](Cc2c[nH]c3ccccc23)NC(=O)[C@H](CCCNC(=N)N)NC(=O)[C@H](Cc2c[nH]c3ccccc23)NC1=O [c(WRWRWR)] (HELM PEPTIDE1{W.R.W.R.W.R}$PEPTIDE1,PEPTIDE1,1:R1-6:R2$$$V2.0) | 32 (≈ 31.2 µM) | 16 (≈ 15.6 µM) | 2 (≈ 1.95 µM) |  | 64 (≈ 62.3 µM) | 32 (≈ 31.2 µM) | 32 (≈ 31.2 µM) |  | 50 to 200 | > 500 | two-fold |
| NCCCC[C@@H]1NC(=O)[C@H](CCCCN)NC(=O)[C@H](Cc2c[nH]c3ccccc23)NC(=O)[C@H](Cc2c[nH]c3ccccc23)NC(=O)[C@H](Cc2c[nH]c3ccccc23)NC(=O)[C@H](CCCCN)NC1=O [c(WWWKKK)] (HELM PEPTIDE1{W.W.W.K.K.K}$PEPTIDE1,PEPTIDE1,1:R1-6:R2$$$V2.0) | 4 (≈ 4.24 µM) | 4 (≈ 4.24 µM) | 2 (≈ 2.12 µM) |  | 32 (≈ 33.9 µM) | 32 (≈ 33.9 µM) | 8 (≈ 8.48 µM) |  |  |  |  |
| N=C(N)NCCC[C@@H]1NC(=O)[C@H](CCCNC(=N)N)NC(=O)[C@H](Cc2c[nH]c3ccccc23)NC(=O)[C@H](Cc2c[nH]c3ccccc23)NC(=O)[C@H](Cc2c[nH]c3ccccc23)NC(=O)[C@H](CCCNC(=N)N)NC1=O [c(WWWRRR)] (HELM PEPTIDE1{W.W.W.R.R.R}$PEPTIDE1,PEPTIDE1,1:R1-6:R2$$$V2.0) | 8 (≈ 7.79 µM) | 8 (≈ 7.79 µM) | 4 (≈ 3.89 µM) |  | 16 (≈ 15.6 µM) | 4 (≈ 3.89 µM) | 8 (≈ 7.79 µM) | 6649 |  |  |  |
